Source: patent publication US20250296959A1, “B7-H3 TARGETING PEPTIDES AND CONSTRUCTS THEREOF” (Mariana Oncology Inc., priority 2024, published 2025)
Starred links: 1 amine or outer side, 2 acyl side, 3 side chain; linkers in the order of their positions; H or OH if unused. Positions of bridges follow the written chain, without caps; N, C: chain ends. Non-standard residues stand in square brackets, D forms with d. Residues, ends and D or L forms follow the SMILES beside them. Groups on a side chain read outwards from the residue. *: point of attachment. X2 = O=C(O)CN1CCN(CC(=O)O)CCN(CC(=O)NCCOCCOCCOCCOCC(=O)*)CCN(CC(=O)O)CC1; Ala(piperidin-4-yl) = O=C([C@H](CC1CCN([*:3])CC1)N[*:1])[*:2]; Phe(3-CH2NH2) = O=C([C@H](Cc1cccc(CN[*:3])c1)N[*:1])[*:2]; DOTA = O=C(O)CN1CCN(CC(=O)O)CCN(CC(=O)*)CCN(CC(=O)O)CC1; Phe(4-COOH) = N[C@@H](Cc1ccc(C(=O)O)cc1)C(=O)O; Trp(5-F) = N[C@@H](Cc1c[nH]c2ccc(F)cc12)C(=O)O; X1 = C[C@@H](c1ccccc1)[C@H](N[*:1])C(=O)[*:2]; X17 = CN1CCC(C[C@H](N[*:1])C(=O)[*:2])CC1; 1Nal = N[C@@H](Cc1cccc2ccccc12)C(=O)O; Ala(4-THP) = N[C@@H](CC1CCOCC1)C(=O)O; N(CH2CH2COOH)Gly = O=C(O)CCNCC(=O)O; Val(3-OH) = CC(C)(O)[C@H](N)C(=O)O; Cha = N[C@@H](CC1CCCCC1)C(=O)O; NMeK = CN[C@@H](CCCCN)C(=O)O; PEG4 = NCCOCCOCCOCCOCCC(=O)O; Tle = CC(C)(C)[C@H](N)C(=O)O; hLeu = CC(C)CC[C@H](N)C(=O)O; Nle = CCCC[C@H](N)C(=O)O; Sar = CNCC(=O)O

molecular target: T1, human 4lg B7-H3 (Homo sapiens, UniProt Q5ZPR3); assay: Affinity determination by surface plasmon resonance (SPR) to 4Ig B7-H3; conditions: SPR KD—25° C., 4Ig B7-H3; 25° C. flow cell temperature
T1 sequence (Q5ZPR3 29-534): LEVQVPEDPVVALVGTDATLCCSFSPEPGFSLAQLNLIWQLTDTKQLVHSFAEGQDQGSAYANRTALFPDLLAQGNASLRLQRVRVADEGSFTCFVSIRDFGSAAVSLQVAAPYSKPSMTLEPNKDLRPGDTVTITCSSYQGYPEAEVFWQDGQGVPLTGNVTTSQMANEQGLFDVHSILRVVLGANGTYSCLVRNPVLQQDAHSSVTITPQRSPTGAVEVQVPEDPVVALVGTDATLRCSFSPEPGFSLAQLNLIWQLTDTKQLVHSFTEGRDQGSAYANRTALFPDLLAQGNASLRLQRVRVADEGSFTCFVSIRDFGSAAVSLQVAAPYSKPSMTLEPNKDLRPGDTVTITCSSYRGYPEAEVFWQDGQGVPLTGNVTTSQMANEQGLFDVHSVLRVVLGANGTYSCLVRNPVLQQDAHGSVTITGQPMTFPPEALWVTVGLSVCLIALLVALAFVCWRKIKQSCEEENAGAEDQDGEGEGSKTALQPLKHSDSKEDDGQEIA

SMILES | Kd [nM]
CCCC[C@H](NC(C)=O)C(=O)N[C@@H](Cc1ccc(O)cc1)C(=O)N[C@H]1CSSC[C@@H](C(=O)N[C@@H](Cc2c[nH]c3ccccc23)C(=O)N[C@@H](Cc2ccccc2)C(=O)N[C@H](C(=O)N[C@H](CCCCNC(=O)CN2CCN(CC(=O)O)CCN(CC(=O)O)CCN(CC(=O)O)CC2)C(N)=O)[C@@H](C)O)NC(=O)[C@H](Cc2ccc(O)cc2)NC(=O)[C@H](C(C)C)NC(=O)[C@H](CC(=O)O)NC(=O)[C@H](Cc2ccc(O)cc2)NC(=O)[C@H](CCCC)NC(=O)CNC(=O)[C@H](C(C)C)NC1=O [compound 66, Ac-Nle-Y-C-V-G-Nle-Y-D-V-Y-C-W-F-Thr-dLys(DOTA)-CONH2] (Ac-[Nle]YCVG[Nle]YDVYCWFT[dK](DOTA)-NH2; disulfide 3-11) | 10 to 100
CC(=O)N[C@@H](CCC(C)C)C(=O)N[C@@H](Cc1ccc(O)cc1)C(=O)N[C@H]1CSSC[C@@H](C(=O)N[C@@H](Cc2c[nH]c3ccccc23)C(=O)N[C@@H](Cc2ccccc2)C(=O)N[C@H](C(=O)N[C@H](CCCCNC(=O)CN2CCN(CC(=O)O)CCN(CC(=O)O)CCN(CC(=O)O)CC2)C(N)=O)[C@@H](C)O)NC(=O)[C@H](Cc2ccc(O)cc2)NC(=O)[C@H](C(C)C)NC(=O)[C@H](CC(=O)O)NC(=O)[C@H](Cc2ccc(C(=O)O)cc2)NC(=O)[C@H](CCCCN)NC(=O)CN(C)C(=O)[C@H](C(C)(C)C)NC1=O [compound 140, Ac-hLeu-Y-C-Tbg-Sar-K-4COOHPhe-D-V-Y-C-W-F-Thr-dLys(DOTA)-CONH2] (Ac-[hLeu]YC[Tle][Sar]K[Phe(4-COOH)]DVYCWFT[dK](DOTA)-NH2; disulfide 3-11) | 1 to 10
CC(=O)N[C@@H](CCC(C)C)C(=O)N[C@@H](Cc1ccc(O)cc1)C(=O)N[C@H]1CSSC[C@@H](C(=O)N[C@@H](Cc2c[nH]c3ccc(F)cc23)C(=O)N[C@@H](Cc2ccccc2)C(=O)N[C@H](C(=O)N[C@H](CCCCNC(=O)CN2CCN(CC(=O)O)CCN(CC(=O)O)CCN(CC(=O)O)CC2)C(N)=O)[C@@H](C)O)NC(=O)[C@H](Cc2ccc(O)cc2)NC(=O)[C@H](C(C)C)NC(=O)[C@H](CC(=O)O)NC(=O)[C@H](Cc2ccc(O)cc2)NC(=O)[C@H](CCCCN)NC(=O)CN(C)C(=O)[C@H](C(C)(C)C)NC1=O [compound 78, Ac-hLeu-Y-C-Tbg-Sar-K-Y-D-V-Y-C-5FW-F-Thr-dLys(DOTA)-CONH2] (Ac-[hLeu]YC[Tle][Sar]KYDVYC[Trp(5-F)]FT[dK](DOTA)-NH2; disulfide 3-11) | 1 to 10
CCCC[C@H](NC(C)=O)C(=O)N[C@@H](Cc1ccc(O)cc1)C(=O)N[C@H]1CSSC[C@@H](C(=O)N[C@@H](Cc2c[nH]c3ccccc23)C(=O)N[C@@H](Cc2ccccc2)C(=O)N[C@H](C(=O)N[C@H](CCCCNC(=O)CN2CCN(CC(=O)O)CCN(CC(=O)O)CCN(CC(=O)O)CC2)C(N)=O)[C@@H](C)O)NC(=O)[C@H](Cc2ccc(O)cc2)NC(=O)[C@H](C(C)C)NC(=O)[C@H](CC(=O)O)NC(=O)[C@H](Cc2ccc(O)cc2)NC(=O)[C@H](CCCCN)NC(=O)CNC(=O)[C@H](C(C)(C)C)NC1=O [compound 61, Ac-Nle-Y-C-Tbg-G-K-Y-D-V-Y-C-W-F-Thr-dLys(DOTA)-CONH2] (Ac-[Nle]YC[Tle]GKYDVYCWFT[dK](DOTA)-NH2; disulfide 3-11) | 1 to 10

The remaining lines, values ahead:

Kd [nM] | SMILES
1 to 10 | CC(=O)N[C@@H](CCC(C)C)C(=O)N[C@@H](Cc1ccc(O)cc1)C(=O)N[C@H]1CSSC[C@@H](C(=O)N[C@@H](Cc2c[nH]c3ccc(F)cc23)C(=O)N[C@@H](Cc2ccccc2)C(=O)N[C@H](C(N)=O)C(C)(C)O)NC(=O)[C@H](Cc2ccc(O)cc2)NC(=O)[C@H](C(C)C)NC(=O)[C@H](CC(=O)O)NC(=O)[C@H](CC2CCCCC2)NC(=O)[C@H](CCCCNC(=O)CN2CCN(CC(=O)O)CCN(CC(=O)O)CCN(CC(=O)O)CC2)NC(=O)CNC(=O)[C@H](C(C)C)NC1=O [compound 201, Ac-hLeu-Y-C-V-G-Lys(DOTA)-CHA-D-V-Y-C-5FW-F-hydroxyVal-CONH2] (Ac-[hLeu]YCVGK(DOTA)[Cha]DVYC[Trp(5-F)]F[Val(3-OH)]-NH2; disulfide 3-11)
10 to 100 | CC(=O)N[C@@H](CCC(C)C)C(=O)N[C@@H](Cc1ccc(O)cc1)C(=O)N[C@H]1CSSC[C@@H](C(=O)N[C@@H](Cc2c[nH]c3ccc(F)cc23)C(=O)N[C@@H](Cc2ccccc2)C(=O)N[C@H](C(=O)N[C@H](CCCCNC(=O)CN2CCN(CC(=O)O)CCN(CC(=O)O)CCN(CC(=O)O)CC2)C(=O)O)[C@@H](C)O)NC(=O)[C@H](Cc2ccc(O)cc2)NC(=O)[C@H](C(C)C)NC(=O)[C@H](CC(=O)O)NC(=O)[C@H](CC2CCOCC2)NC(=O)[C@H](CCCCN)N(C)C(=O)CNC(=O)[C@H](C(C)(C)C)NC1=O [compound 352, Ac-hLeu-Y-C-Tbg-G-NMeLys-ThpA-D-V-Y-C-5FW-F-Thr-dLys(DOTA)-COOH] (Ac-[hLeu]YC[Tle]G[NMeK][Ala(4-THP)]DVYC[Trp(5-F)]FT[dK](DOTA)-OH; disulfide 3-11)
1 to 10 | CC(=O)N[C@@H](CCC(C)C)C(=O)N[C@@H](Cc1ccc(O)cc1)C(=O)N[C@H]1CSSC[C@@H](C(=O)N[C@@H](Cc2cccc3ccccc23)C(=O)N[C@@H](Cc2ccccc2)C(=O)N2CCC[C@H]2C(N)=O)NC(=O)[C@H](Cc2ccc(O)cc2)NC(=O)[C@H](C(C)C)NC(=O)[C@H](CC(=O)O)NC(=O)[C@H](Cc2cccc(CNC(=O)COCCOCCOCCOCCNC(=O)CN3CCN(CC(=O)O)CCN(CC(=O)O)CCN(CC(=O)O)CC3)c2)NC(=O)[C@H](CCCCN)NC(=O)CNC(=O)[C@H](C(C)(C)C)NC1=O [compound 257, Ac-hLeu-Y-C-Tbg-G-K-MAF(PEG4-DOTA)-D-V-Y-C-1Nal-F-Pro-CONH2] (Ac-[hLeu]YC[Tle]GK[Phe(3-CH2NH2)](X2)DVYC[1Nal]FP-NH2; disulfide 3-11)
1 to 10 | CC(=O)N[C@@H](CCC(C)C)C(=O)N[C@@H](Cc1ccc(O)cc1)C(=O)N[C@H]1CSSC[C@@H](C(=O)N[C@@H](Cc2c[nH]c3ccccc23)C(=O)N[C@@H](Cc2ccccc2)C(=O)N2CCC[C@H]2C(=O)N[C@@H](CCCCNC(=O)CN2CCN(CC(=O)O)CCN(CC(=O)O)CCN(CC(=O)O)CC2)C(N)=O)NC(=O)[C@H](Cc2ccc(O)cc2)NC(=O)[C@H](C(C)C)NC(=O)[C@H](CC(=O)O)NC(=O)[C@H](Cc2ccc(O)cc2)NC(=O)[C@H](CCCCN)NC(=O)CNC(=O)[C@H](C(C)C)NC1=O [compound 141, Ac-hLeu-Y-C-V-G-K-Y-D-V-Y-C-W-F-Pro-dLys(DOTA)-CONH2] (Ac-[hLeu]YCVGKYDVYCWFPK(DOTA)-NH2; disulfide 3-11)

same assay, conditions: SPR KD—37° C., 4Ig B7-H3; 37° C. flow cell temperature

SMILES | Kd [nM]
CCCC[C@H](NC(C)=O)C(=O)N[C@@H](Cc1ccc(O)cc1)C(=O)N[C@H]1CSSC[C@@H](C(=O)N[C@@H](Cc2c[nH]c3ccccc23)C(=O)N[C@@H](Cc2ccccc2)C(N)=O)NC(=O)[C@H](Cc2ccc(O)cc2)NC(=O)[C@H](C(C)C)NC(=O)[C@H](CC(=O)O)NC(=O)[C@H](Cc2ccc(C(=O)O)cc2)NC(=O)[C@H](CCCCN)NC(=O)CNC(=O)[C@H](C(C)C)NC1=O [compound 24, Ac-Nle-Y-C-V-G-K-4COOHPhe-D-V-Y-C-W-F-CONH2] (Ac-[Nle]YCVGK[Phe(4-COOH)]DVYCWF-NH2; disulfide 3-11) | 10 to 100
CCCC[C@H](NC(C)=O)C(=O)N[C@@H](Cc1ccc(O)cc1)C(=O)N[C@H]1CSSC[C@@H](C(=O)N[C@@H](Cc2c[nH]c3ccccc23)C(=O)N[C@@H](Cc2ccccc2)C(N)=O)NC(=O)[C@H](Cc2ccc(O)cc2)NC(=O)[C@H](C(C)C)NC(=O)[C@H](CC(=O)O)NC(=O)[C@H](Cc2ccc(O)cc2)NC(=O)[C@H](CCCCN)NC(=O)CN(CCC(=O)O)C(=O)[C@H](C(C)C)NC1=O [compound 53, Ac-Nle-Y-C-V-N(CH2)2COOHGly-K-Y-D-V-Y-C-W-F-CONH2] (Ac-[Nle]YCV[N(CH2CH2COOH)Gly]KYDVYCWF-NH2; disulfide 3-11) | 100 to 300

Results, then the compound that gave them:

Kd [nM] | SMILES
< 1 | CC(=O)N[C@@H](CCC(C)C)C(=O)N[C@@H](Cc1ccc(O)cc1)C(=O)N[C@H]1CSSC[C@@H](C(=O)N[C@@H](Cc2cccc3ccccc23)C(=O)N[C@@H](Cc2ccccc2)C(=O)N[C@H](C(=O)N[C@H](C)C(=O)O)C(C)(C)O)NC(=O)[C@H](Cc2ccc(O)cc2)NC(=O)[C@H](C(C)C)NC(=O)[C@H](CC(=O)O)NC(=O)[C@H](CC2CCN(C(=O)CCOCCOCCOCCOCCNC(=O)CN3CCN(CC(=O)O)CCN(CC(=O)O)CCN(CC(=O)O)CC3)CC2)NC(=O)[C@H](CC2CCNCC2)NC(=O)CNC(=O)[C@H](C(C)(C)C)NC1=O [compound 453, Ac-hLeu-Y-C-Tbg-G-PipAla-Pip(PEG4-DOTA)Ala-D-V-Y-C-1Nal-F-hydroxyVal-dAla-COOH] (Ac-[hLeu]YC[Tle]G[Ala(piperidin-4-yl)][Ala(piperidin-4-yl)]([PEG4-DOTA])DVYC[1Nal]F[Val(3-OH)][dA]-OH; disulfide 3-11)
< 1 | CC(=O)N[C@@H](CCC(C)C)C(=O)N[C@@H](Cc1ccc(O)cc1)C(=O)N[C@H]1CSSC[C@@H](C(=O)N[C@@H](Cc2c[nH]c3ccc(F)cc23)C(=O)N[C@H](C(=O)N[C@H](C(=O)N[C@H](C)C(=O)O)C(C)(C)O)[C@@H](C)c2ccccc2)NC(=O)[C@H](Cc2ccc(O)cc2)NC(=O)[C@H](C(C)C)NC(=O)[C@H](CC(=O)O)NC(=O)[C@H](CC2CCN(C(=O)CCOCCOCCOCCOCCNC(=O)CN3CCN(CC(=O)O)CCN(CC(=O)O)CCN(CC(=O)O)CC3)CC2)NC(=O)[C@H](CC2CCN(C)CC2)NC(=O)CNC(=O)[C@H](C(C)(C)C)NC1=O [compound 520, Ac-hLeu-Y-C-Tbg-G-Pip(Me)Ala-Pip(PEG4-DOTA)Ala-D-V-Y-C-5FW-[(2S, 3S)beta-Me-Phe]-hydroxyVal-dAla-COOH] (Ac-[hLeu]YC[Tle]G[X17][Ala(piperidin-4-yl)]([PEG4-DOTA])DVYC[Trp(5-F)][X1][Val(3-OH)][dA]-OH; disulfide 3-11)
